Test results reported in the kinase profiling compilation of Christmann-Franck et al. (2016).

Assays:
Assay in all cases: radiometric filter-binding kinase assay
SIK3 (human) = SIK3 (human) (UniProt Q9Y2K2)
DDR2 (human) = DDR2 (human) (UniProt Q16832)
ABL1 (human) = ABL1 (human) (UniProt P00519)
CSNK1G2 (human) = CSNK1G2 (human) (UniProt P78368)
PDGFRA (human) = PDGFRA (human) (UniProt P16234); details: compound 5.0 µM
MAP4K5 (human) = MAP4K5 (human) (UniProt Q9Y4K4)
[1] = biological target: PRKAA1 PRKAB2 PRKAG1 (human) (UniProt O43741+Q13131+P54619)
CDK9 CCNT1 (human) = CDK9 CCNT1 (human) (UniProt P50750+O60563)
PRKCG (human) = PRKCG (human) (UniProt P05129)
IRAK1 (human) = IRAK1 (human) (UniProt P51617)
TESK1 (human) = TESK1 (human) (UniProt Q15569)
PRKAA1 or PRKAA2 (rat) = details: accession and sequence are those of the human protein
MAP4K3 (human) = MAP4K3 (human) (UniProt Q8IVH8)
TEK (human) = TEK (human) (UniProt Q02763)
WNK1 (human) = WNK1 (human) (UniProt Q9H4A3)
STK33 (human) = STK33 (human) (UniProt Q9BYT3)
TSSK1B (human) = TSSK1B (human) (UniProt Q9BXA7)
ULK1 (human) = ULK1 (human) (UniProt O75385)
SIK2 (human) = SIK2 (human) (UniProt Q9H0K1)
ZAP70 (human) = ZAP70 (human) (UniProt P43403)
STK16 (human) = STK16 (human) (UniProt O75716)
TTBK1 (human) = TTBK1 (human) (UniProt Q5TCY1)
MAPKAPK3 (human) = MAPKAPK3 (human) (UniProt Q16644)
TTBK2 (human) = TTBK2 (human) (UniProt Q6IQ55)
[2] = test system: OXSR1 (human), O95747 [T185E]
PTK6 (human) = PTK6 (human) (UniProt Q13882)
ULK2 (human) = ULK2 (human) (UniProt Q8IYT8)
TLK1 (human) = TLK1 (human) (UniProt Q9UKI8)
STK24 (human) = STK24 (human) (UniProt Q9Y6E0)
EIF2AK3 (human) = EIF2AK3 (human) (UniProt Q9NZJ5)

TLK1 (human), sequence (Q9UKI8 whole entry, looked up): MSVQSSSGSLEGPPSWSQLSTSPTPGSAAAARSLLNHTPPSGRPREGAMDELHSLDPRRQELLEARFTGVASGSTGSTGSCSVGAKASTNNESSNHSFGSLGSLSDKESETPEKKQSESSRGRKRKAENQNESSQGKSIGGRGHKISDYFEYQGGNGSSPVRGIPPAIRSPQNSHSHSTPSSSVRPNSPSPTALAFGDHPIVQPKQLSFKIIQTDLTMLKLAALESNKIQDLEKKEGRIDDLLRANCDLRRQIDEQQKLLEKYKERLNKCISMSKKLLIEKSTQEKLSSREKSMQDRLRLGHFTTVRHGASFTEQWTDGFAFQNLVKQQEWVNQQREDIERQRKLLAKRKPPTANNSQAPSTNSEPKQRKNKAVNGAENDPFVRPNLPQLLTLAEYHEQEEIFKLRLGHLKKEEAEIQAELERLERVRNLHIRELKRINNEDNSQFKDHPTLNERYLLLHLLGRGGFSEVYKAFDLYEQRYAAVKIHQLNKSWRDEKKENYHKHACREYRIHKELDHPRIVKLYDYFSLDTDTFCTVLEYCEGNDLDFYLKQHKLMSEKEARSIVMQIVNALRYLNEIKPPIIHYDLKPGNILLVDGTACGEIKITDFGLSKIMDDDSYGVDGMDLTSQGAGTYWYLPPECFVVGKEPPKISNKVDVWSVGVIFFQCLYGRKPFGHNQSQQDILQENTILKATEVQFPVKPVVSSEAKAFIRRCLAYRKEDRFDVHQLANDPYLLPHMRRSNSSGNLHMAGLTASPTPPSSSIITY
TEK (human), sequence (Q02763 whole entry, looked up): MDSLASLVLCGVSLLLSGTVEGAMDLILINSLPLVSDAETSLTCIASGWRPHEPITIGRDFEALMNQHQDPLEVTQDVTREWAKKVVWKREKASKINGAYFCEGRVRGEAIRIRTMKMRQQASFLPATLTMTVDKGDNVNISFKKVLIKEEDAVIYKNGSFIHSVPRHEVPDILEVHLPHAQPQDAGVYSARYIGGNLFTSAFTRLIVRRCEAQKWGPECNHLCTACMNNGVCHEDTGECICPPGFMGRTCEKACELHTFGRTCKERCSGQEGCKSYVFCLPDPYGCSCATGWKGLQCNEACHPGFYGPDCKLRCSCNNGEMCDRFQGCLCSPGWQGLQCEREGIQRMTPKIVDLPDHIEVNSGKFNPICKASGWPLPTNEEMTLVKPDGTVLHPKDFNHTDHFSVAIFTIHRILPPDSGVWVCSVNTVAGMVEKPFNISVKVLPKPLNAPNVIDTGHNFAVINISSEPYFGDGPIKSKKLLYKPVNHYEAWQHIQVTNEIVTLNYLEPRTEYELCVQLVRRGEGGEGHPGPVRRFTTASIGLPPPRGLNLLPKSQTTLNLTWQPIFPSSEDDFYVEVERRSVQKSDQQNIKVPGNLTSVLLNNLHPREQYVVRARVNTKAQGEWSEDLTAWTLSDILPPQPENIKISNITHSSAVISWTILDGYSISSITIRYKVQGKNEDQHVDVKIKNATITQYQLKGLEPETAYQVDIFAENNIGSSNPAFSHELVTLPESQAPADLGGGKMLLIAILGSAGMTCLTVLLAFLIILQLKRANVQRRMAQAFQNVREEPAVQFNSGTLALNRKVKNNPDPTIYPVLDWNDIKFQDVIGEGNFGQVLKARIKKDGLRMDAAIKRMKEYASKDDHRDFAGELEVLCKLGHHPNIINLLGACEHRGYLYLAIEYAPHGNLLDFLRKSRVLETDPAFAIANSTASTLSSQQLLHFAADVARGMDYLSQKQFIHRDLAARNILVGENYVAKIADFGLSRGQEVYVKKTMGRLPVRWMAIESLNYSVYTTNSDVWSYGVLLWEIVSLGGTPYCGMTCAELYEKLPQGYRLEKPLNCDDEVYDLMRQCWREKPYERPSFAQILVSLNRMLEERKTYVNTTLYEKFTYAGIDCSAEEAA
CDK9 CCNT1 (human), sequence (O60563 whole entry, looked up): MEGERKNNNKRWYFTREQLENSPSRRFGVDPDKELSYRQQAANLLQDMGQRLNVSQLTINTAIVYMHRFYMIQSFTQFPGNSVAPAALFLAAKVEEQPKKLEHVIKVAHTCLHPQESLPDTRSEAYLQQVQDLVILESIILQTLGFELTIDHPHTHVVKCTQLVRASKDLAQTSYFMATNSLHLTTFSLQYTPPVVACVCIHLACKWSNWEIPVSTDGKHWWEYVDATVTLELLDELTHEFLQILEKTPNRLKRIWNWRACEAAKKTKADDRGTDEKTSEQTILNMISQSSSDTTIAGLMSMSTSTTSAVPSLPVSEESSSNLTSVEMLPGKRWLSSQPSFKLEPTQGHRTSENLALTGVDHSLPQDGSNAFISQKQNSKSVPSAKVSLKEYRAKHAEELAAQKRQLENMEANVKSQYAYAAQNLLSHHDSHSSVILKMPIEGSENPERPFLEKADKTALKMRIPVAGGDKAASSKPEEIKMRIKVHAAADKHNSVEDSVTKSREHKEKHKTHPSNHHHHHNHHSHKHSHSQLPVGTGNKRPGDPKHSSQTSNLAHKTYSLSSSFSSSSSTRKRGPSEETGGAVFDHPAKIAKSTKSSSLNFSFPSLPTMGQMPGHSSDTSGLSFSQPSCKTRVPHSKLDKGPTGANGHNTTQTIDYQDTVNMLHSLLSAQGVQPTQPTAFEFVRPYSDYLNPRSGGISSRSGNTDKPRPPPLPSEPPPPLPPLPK
CDK9 CCNT1 (human), sequence (P50750 whole entry, looked up): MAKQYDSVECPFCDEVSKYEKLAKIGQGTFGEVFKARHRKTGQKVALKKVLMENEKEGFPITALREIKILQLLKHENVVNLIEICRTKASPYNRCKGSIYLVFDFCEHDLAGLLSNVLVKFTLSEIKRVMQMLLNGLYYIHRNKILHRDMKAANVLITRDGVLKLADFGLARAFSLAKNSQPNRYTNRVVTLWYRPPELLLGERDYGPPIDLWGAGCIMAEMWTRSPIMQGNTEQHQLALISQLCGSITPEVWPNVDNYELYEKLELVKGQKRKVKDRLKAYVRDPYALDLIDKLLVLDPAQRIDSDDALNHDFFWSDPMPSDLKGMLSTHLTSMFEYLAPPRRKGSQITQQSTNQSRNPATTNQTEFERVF
ABL1 (human), sequence (P00519 whole entry, looked up): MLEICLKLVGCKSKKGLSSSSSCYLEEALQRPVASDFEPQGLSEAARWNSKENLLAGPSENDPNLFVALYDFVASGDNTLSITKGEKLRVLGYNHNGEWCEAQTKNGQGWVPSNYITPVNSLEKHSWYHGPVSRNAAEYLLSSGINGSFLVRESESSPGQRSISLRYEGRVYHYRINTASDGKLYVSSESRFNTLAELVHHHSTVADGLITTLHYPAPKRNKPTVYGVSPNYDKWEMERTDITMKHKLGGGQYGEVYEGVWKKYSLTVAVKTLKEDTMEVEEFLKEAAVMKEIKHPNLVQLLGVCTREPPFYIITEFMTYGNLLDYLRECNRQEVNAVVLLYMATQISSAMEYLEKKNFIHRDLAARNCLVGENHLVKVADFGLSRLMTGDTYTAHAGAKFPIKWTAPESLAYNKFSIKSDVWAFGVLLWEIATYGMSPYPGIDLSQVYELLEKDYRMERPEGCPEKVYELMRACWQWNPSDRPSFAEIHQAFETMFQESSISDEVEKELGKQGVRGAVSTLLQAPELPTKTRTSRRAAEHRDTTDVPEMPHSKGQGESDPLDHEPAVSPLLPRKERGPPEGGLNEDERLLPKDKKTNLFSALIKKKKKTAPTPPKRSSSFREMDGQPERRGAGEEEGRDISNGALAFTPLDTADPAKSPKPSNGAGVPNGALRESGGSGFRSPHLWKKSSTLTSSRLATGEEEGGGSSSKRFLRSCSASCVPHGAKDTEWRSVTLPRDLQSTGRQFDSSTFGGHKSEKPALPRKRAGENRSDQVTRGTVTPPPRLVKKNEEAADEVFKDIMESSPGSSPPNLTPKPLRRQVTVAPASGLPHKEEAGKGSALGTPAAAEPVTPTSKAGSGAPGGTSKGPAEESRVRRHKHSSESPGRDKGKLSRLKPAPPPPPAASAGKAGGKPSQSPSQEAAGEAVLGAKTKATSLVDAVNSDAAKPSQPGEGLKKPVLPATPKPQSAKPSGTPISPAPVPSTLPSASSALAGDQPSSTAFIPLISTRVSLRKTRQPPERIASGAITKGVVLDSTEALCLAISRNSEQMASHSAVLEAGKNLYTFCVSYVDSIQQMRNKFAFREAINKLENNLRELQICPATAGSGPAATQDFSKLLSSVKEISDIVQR
TESK1 (human), sequence (Q15569 whole entry, looked up): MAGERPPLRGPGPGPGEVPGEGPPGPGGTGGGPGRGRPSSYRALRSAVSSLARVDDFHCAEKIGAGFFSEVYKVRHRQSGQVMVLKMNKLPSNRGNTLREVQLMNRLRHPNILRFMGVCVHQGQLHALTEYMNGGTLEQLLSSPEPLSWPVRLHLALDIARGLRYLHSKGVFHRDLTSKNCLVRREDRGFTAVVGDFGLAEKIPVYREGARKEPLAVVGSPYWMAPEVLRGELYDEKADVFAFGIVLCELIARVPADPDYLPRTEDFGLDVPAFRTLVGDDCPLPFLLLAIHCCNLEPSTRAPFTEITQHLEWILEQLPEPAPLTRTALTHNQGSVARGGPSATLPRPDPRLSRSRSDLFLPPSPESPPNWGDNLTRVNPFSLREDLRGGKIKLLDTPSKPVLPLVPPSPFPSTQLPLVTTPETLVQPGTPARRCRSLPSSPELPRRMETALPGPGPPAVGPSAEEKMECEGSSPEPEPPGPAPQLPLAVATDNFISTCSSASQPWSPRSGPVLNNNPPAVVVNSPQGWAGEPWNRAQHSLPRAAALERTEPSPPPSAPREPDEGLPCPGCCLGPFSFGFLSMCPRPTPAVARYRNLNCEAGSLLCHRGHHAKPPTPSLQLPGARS
STK16 (human), sequence (O75716 whole entry, looked up): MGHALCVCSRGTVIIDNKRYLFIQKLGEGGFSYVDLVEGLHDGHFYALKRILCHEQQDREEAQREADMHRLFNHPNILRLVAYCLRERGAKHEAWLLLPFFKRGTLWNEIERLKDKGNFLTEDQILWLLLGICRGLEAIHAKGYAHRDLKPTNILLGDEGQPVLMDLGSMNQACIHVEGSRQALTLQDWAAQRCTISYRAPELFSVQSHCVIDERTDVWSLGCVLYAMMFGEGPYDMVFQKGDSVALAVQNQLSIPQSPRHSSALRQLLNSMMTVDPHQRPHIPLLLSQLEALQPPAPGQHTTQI

In the case of `C=C1C(=O)OC2C1CC/C(C)=C/CCC1(C)OC21` (configuration not stated), the residual activity (SIK3 (human); compound 1.0 µM) is reported as 110%, the residual activity (SIK3 (human); compound 5.0 µM) is reported as 104% and the residual activity (DDR2 (human); compound 1.0 µM) is reported as 105%. The residual activity (DDR2 (human); compound 5.0 µM) was 107%, the residual activity (ABL1 (human); compound 1.0 µM) was 119% and the residual activity (ABL1 (human); compound 5.0 µM) was 110%. It also gave a residual activity (CSNK1G2 (human); compound 1.0 µM) of 124%, a residual activity (CSNK1G2 (human); compound 5.0 µM) of 101% and a residual activity (PDGFRA (human)) of 109%. The residual activity (MAP4K5 (human); compound 1.0 µM) was 116%, the residual activity (MAP4K5 (human); compound 5.0 µM) was 97% and the residual activity ([1]; compound 1.0 µM) was 111%. It also gave a residual activity ([1]; compound 5.0 µM) of 107%, a residual activity (CDK9 CCNT1 (human); compound 1.0 µM) of 119% and a residual activity (CDK9 CCNT1 (human); compound 5.0 µM) of 101%. For the same molecule, the residual activity (PRKCG (human); compound 1.0 µM) was 120%, the residual activity (PRKCG (human); compound 5.0 µM) was 121% and the residual activity (IRAK1 (human); compound 1.0 µM) was 96%. For the same molecule, the residual activity (IRAK1 (human); compound 5.0 µM) was 102%, the residual activity (TESK1 (human); compound 1.0 µM) was 106% and the residual activity (TESK1 (human); compound 5.0 µM) was 112%. For the same molecule, the residual activity (PRKAA1 or PRKAA2 (rat); compound 1.0 µM) was 97%, the residual activity (PRKAA1 or PRKAA2 (rat); compound 5.0 µM) was 98% and the residual activity (MAP4K3 (human); compound 1.0 µM) was 95%. For the same molecule, the residual activity (MAP4K3 (human); compound 5.0 µM) was 88%, the residual activity (TEK (human); compound 1.0 µM) was 99% and the residual activity (TEK (human); compound 5.0 µM) was 80%. It also gave a residual activity (WNK1 (human); compound 1.0 µM) of 112%, a residual activity (WNK1 (human); compound 5.0 µM) of 100% and a residual activity (STK33 (human); compound 1.0 µM) of 117%. For the same molecule, the residual activity (STK33 (human); compound 5.0 µM) was 102%, the residual activity (TSSK1B (human); compound 1.0 µM) was 103% and the residual activity (TSSK1B (human); compound 5.0 µM) was 93%. For the same molecule, the residual activity (ULK1 (human); compound 1.0 µM) was 104%, the residual activity (ULK1 (human); compound 5.0 µM) was 110% and the residual activity (SIK2 (human); compound 1.0 µM) was 108%. For the same molecule, the residual activity (SIK2 (human); compound 5.0 µM) was 93%, the residual activity (ZAP70 (human); compound 1.0 µM) was 99% and the residual activity (ZAP70 (human); compound 5.0 µM) was 104%. The residual activity (STK16 (human); compound 1.0 µM) was 121%, the residual activity (STK16 (human); compound 5.0 µM) was 106% and the residual activity (TTBK1 (human); compound 1.0 µM) was 110%. For the same molecule, the residual activity (TTBK1 (human); compound 5.0 µM) was 103%, the residual activity (MAPKAPK3 (human); compound 1.0 µM) was 135% and the residual activity (MAPKAPK3 (human); compound 5.0 µM) was 58%. It also gave a residual activity (TTBK2 (human); compound 1.0 µM) of 125%, a residual activity (TTBK2 (human); compound 5.0 µM) of 100% and a residual activity ([2]; compound 1.0 µM) of 115%. For the same molecule, the residual activity (PTK6 (human); compound 1.0 µM) was 107%, the residual activity (PTK6 (human); compound 5.0 µM) was 120% and the residual activity (ULK2 (human); compound 1.0 µM) was 96%. It also gave a residual activity (ULK2 (human); compound 5.0 µM) of 121%, a residual activity (TLK1 (human); compound 1.0 µM) of 108% and a residual activity (TLK1 (human); compound 5.0 µM) of 115%. It also gave a residual activity (STK24 (human); compound 1.0 µM) of 101%, a residual activity (STK24 (human); compound 5.0 µM) of 88% and a residual activity (EIF2AK3 (human); compound 1.0 µM) of 111%. For the same molecule, the residual activity (EIF2AK3 (human); compound 5.0 µM) was 123%.

Work on `COc1cc(O)c2c(c1)[C@H]1OC1C[C@H](O)[C@H](O)C(=O)/C=C\C[C@H](C)OC2=O` (some centres not stated) yielded a residual activity (SIK3 (human); compound 0.01 µM) of 102%, a residual activity (SIK3 (human); compound 0.1 µM) of 93% and a residual activity (SIK3 (human); compound 1.0 µM) of 94%. The residual activity (DDR2 (human); compound 0.01 µM) was 91%, the residual activity (DDR2 (human); compound 0.1 µM) was 113% and the residual activity (ABL1 (human); compound 0.01 µM) was 96%. The residual activity (ABL1 (human); compound 0.1 µM) was 97%, the residual activity (ABL1 (human); compound 1.0 µM) was 105% and the residual activity (CSNK1G2 (human); compound 0.01 µM) was 100%. The residual activity (CSNK1G2 (human); compound 0.1 µM) was 100%, the residual activity (CSNK1G2 (human); compound 1.0 µM) was 109% and the residual activity (CDK9 CCNT1 (human); compound 0.01 µM) was 97%. The residual activity (CDK9 CCNT1 (human); compound 0.1 µM) was 117%, the residual activity (CDK9 CCNT1 (human); compound 1.0 µM) was 111% and the residual activity (PRKCG (human); compound 0.01 µM) was 103%. For the same molecule, the residual activity (PRKCG (human); compound 0.1 µM) was 109%, the residual activity (PRKCG (human); compound 1.0 µM) was 89% and the residual activity (IRAK1 (human); compound 0.01 µM) was 97%. For the same molecule, the residual activity (IRAK1 (human); compound 0.1 µM) was 97%, the residual activity (TESK1 (human); compound 0.1 µM) was 107% and the residual activity (TESK1 (human); compound 1.0 µM) was 92%. The residual activity (PRKAA1 or PRKAA2 (rat); compound 0.01 µM) was 105%, the residual activity (PRKAA1 or PRKAA2 (rat); compound 0.1 µM) was 105% and the residual activity (PRKAA1 or PRKAA2 (rat); compound 1.0 µM) was 94%. For the same molecule, the residual activity (TEK (human); compound 0.01 µM) was 122%, the residual activity (TEK (human); compound 0.1 µM) was 101% and the residual activity (TEK (human); compound 1.0 µM) was 122%. For the same molecule, the residual activity (WNK1 (human); compound 0.01 µM) was 94%, the residual activity (WNK1 (human); compound 0.1 µM) was 107% and the residual activity (WNK1 (human); compound 1.0 µM) was 106%. For the same molecule, the residual activity (STK33 (human); compound 0.01 µM) was 113%, the residual activity (STK33 (human); compound 0.1 µM) was 105% and the residual activity (STK33 (human); compound 1.0 µM) was 113%. For the same molecule, the residual activity (TSSK1B (human); compound 0.01 µM) was 112%, the residual activity (TSSK1B (human); compound 0.1 µM) was 110% and the residual activity (TSSK1B (human); compound 1.0 µM) was 99%. The residual activity (ULK1 (human); compound 0.01 µM) was 91%, the residual activity (ULK1 (human); compound 0.1 µM) was 88% and the residual activity (ULK1 (human); compound 1.0 µM) was 92%. It also gave a residual activity (SIK2 (human); compound 0.01 µM) of 106%, a residual activity (SIK2 (human); compound 0.1 µM) of 107% and a residual activity (SIK2 (human); compound 1.0 µM) of 88%. The residual activity (ZAP70 (human); compound 0.1 µM) was 101%, the residual activity (ZAP70 (human); compound 1.0 µM) was 103% and the residual activity (STK16 (human); compound 0.01 µM) was 94%. For the same molecule, the residual activity (STK16 (human); compound 1.0 µM) was 102%, the residual activity (TTBK1 (human); compound 0.01 µM) was 89% and the residual activity (TTBK1 (human); compound 0.1 µM) was 82%. The residual activity (MAPKAPK3 (human); compound 0.01 µM) was 105%, the residual activity (MAPKAPK3 (human); compound 0.1 µM) was 99% and the residual activity (MAPKAPK3 (human); compound 1.0 µM) was 99%. The residual activity ([2]; compound 0.01 µM) was 104%, the residual activity ([2]; compound 0.1 µM) was 99% and the residual activity (PTK6 (human); compound 0.01 µM) was 101%. The residual activity (PTK6 (human); compound 1.0 µM) was 48%, the residual activity (ULK2 (human); compound 0.01 µM) was 94% and the residual activity (ULK2 (human); compound 0.1 µM) was 96%. It also gave a residual activity (TLK1 (human); compound 0.01 µM) of 95%, a residual activity (TLK1 (human); compound 0.1 µM) of 101% and a residual activity (STK24 (human); compound 0.01 µM) of 106%. The residual activity (STK24 (human); compound 0.1 µM) was 104%, the residual activity (STK24 (human); compound 1.0 µM) was 114% and the residual activity (EIF2AK3 (human); compound 0.01 µM) was 105%. The residual activity (EIF2AK3 (human); compound 0.1 µM) was 92%.
